# Target: T1, Human thrombin (Homo sapiens, UniProt P00734)
# T1 construct: purchased Haematologic Technologies Inc
# Experiment: Inhibition of the protease activity of thrombin (chromogenic substrate S-2238)
# Format: biochemical
# Conditions: Table C; 3 nM thrombin, 125 μM S-2238, 10 min pre-incubation, RT
row,IC50,Compound
1,< 100 nM,"CCCC(=O)n1nc(-c2cccnc2)nc1NCc1cccs1 [Cmpd 342, 1-[3-(pyridin-3-yl)-5-[(thiophen-2-ylmethyl)amino]-1H-1,2,4-triazol-1-yl]butan-1-one]"
2,100 to 1000 nM,"CCC(=O)n1nc(-c2cccnc2)nc1NCc1cccc(F)c1 [Cmpd 8, 1-(5-[(3-fluorophenyl)methyl]amino-3-(pyridin-3-yl)-1H-1,2,4-triazol-1-yl)propan-1-one]"
3,100 to 1000 nM,"COC(=O)c1nnc(NC(=O)c2ccc(F)cc2)[nH]1 [Cmpd 385, methyl 5-[(4-fluorobenzene)amido]-4H-1,2,4-triazole-3-carboxylate]"
4,< 100 nM,"CC(C)(C)C(=O)n1nc(-c2ccco2)nc1NCc1ccc(F)cc1 [Cmpd 309, 1-(5-[(4-fluorophenyl)methyl]amino-3-(furan-2-yl)-1H-1,2,4-triazol-1-yl)-2,2-dimethylpropan-1-one]"
5,< 100 nM,"Cc1ccc(CNc2nc(-c3cccnc3)nn2C(=O)CC(C)C)cc1 [Cmpd 374, 3-methyl-1-(5-[(4-methylphenyl)methyl]amino-3-(pyridin-3-yl)-1H-1,2,4-triazol-1-yl)butan-1-one]"
6,> 1000 nM,"CCOC(=O)n1nc(-c2ccc(Cl)cc2)cc1N [Cmpd 376, ethyl 5-amino-3-(4-chlorophenyl)-1H-pyrazole-1-carboxylate]"
7,> 1000 nM,"COc1ccccc1CNc1nc(-c2cccnc2)nn1C(=O)C(C)C [Cmpd 305, 1-(5-[(2-methoxyphenyl)methyl]amino-3-(pyridin-3-yl)-1H-1,2,4-triazol-1-yl)-2-methylpropan-1-one]"
8,< 100 nM,"CC(C)C(=O)n1nc(-c2cccnc2)nc1NCc1ccccc1 [Cmpd 349, 1-[5-(benzylamino)-3-(pyridin-3-yl)-1H-1,2,4-triazol-1-yl]-2-methylpropan-1-one]"
9,< 100 nM,"O=C(c1ccccc1)n1nc(-c2ccccc2)nc1NCc1ccccc1 [Cmpd 359, 1-benzoyl-N-benzyl-3-phenyl-1H-1,2,4-triazol-5-amine]"
10,< 100 nM,"COc1ccccc1C(=O)n1nc(-c2ccccc2)nc1NCc1ccco1 [Cmpd 394, N-(furan-2-ylmethyl)-1-[(2-methoxyphenyl)carbonyl]-3-phenyl-1H-1,2,4-triazol-5-amine]"
11,< 100 nM,"CC(C)CC(=O)n1nc(-c2cccnc2)nc1NCc1ccccc1 [Cmpd 350, 1-[5-(benzylamino)-3-(pyridin-3-yl)-1H-1,2,4-triazol-1-yl]-3-methylbutan-1-one]"

# Same assay, conditions: inhibition of the protease activity of thrombin
row,IC50,Compound
1,100 to 1000 nM,"O=C(c1ccccc1Br)n1nc(-c2ccccn2)cc1NCc1ccccc1 [Cmpd 241, N-benzyl-1-[(2-bromophenyl)carbonyl]-3-(pyridin-2-yl)-1H-pyrazol-5-amine]"
2,> 1000 nM,"COc1ccc(CNc2nc(-c3cccnc3)nn2C(=O)c2ccsc2)cc1 [Cmpd 228, N-[(4-methoxyphenyl)methyl]-3-(pyridin-3-yl)-1-[(thiophen-3-yl)carbonyl]-1H-1,2,4-triazol-5-amine]"
3,> 1000 nM,"CC(C)c1ccccc1C(=O)n1nc(-c2ccccn2)cc1NCc1ccccc1 [Cmpd 276, N-benzyl-1-[2-(propan-2-yl)phenyl]carbonyl-3-(pyridin-2-yl)-1H-pyrazol-5-amine]"
4,> 1000 nM,"Cc1c(-c2ccccc2)n[nH]c1N(Cc1ccc(F)cc1)C(=O)C(C)(C)C [Cmpd 218, N-[(4-fluorophenyl)methyl]-2,2-dimethyl-N-(4-methyl-3-phenyl-1H-pyrazol-5-yl)propanamide]"
5,< 100 nM,"O=C(c1ccsc1)n1nc(-c2cccnc2)nc1NCc1ccc(F)cc1 [Cmpd 220, N-[(4-fluorophenyl)methyl]-3-(pyridin-3-yl)-1-[(thiophen-3-yl)carbonyl]-1H-1,2,4-triazol-5-amine]"
6,> 1000 nM,"COc1ccccc1C(=O)n1nc(-c2ccccc2F)cc1NCc1ccccc1 [Cmpd 278, N-benzyl-3-(2-fluorophenyl)-1-[(2-methoxyphenyl)carbonyl]-1H-pyrazol-5-amine]"
7,> 1000 nM,"COc1ccc(C(=O)n2nc(-c3ccccc3F)cc2NCc2ccccc2)c(OC)c1 [Cmpd 234, N-benzyl-1-[(2,4-dimethoxyphenyl)carbonyl]-3-(2-fluorophenyl)-1H-pyrazol-5-amine]"
8,< 100 nM,"O=C(Oc1ccccc1)n1nc(-c2cccnc2)nc1NCc1ccc(F)cc1 [Cmpd 298, phenyl 5-[(4-fluorophenyl)methyl]amino-3-(pyridin-3-yl)-1H-1,2,4-triazole-1-carboxylate]"
9,< 100 nM,"COc1ccc(C(=O)n2nc(-c3ccccn3)nc2NCc2ccccc2)cc1 [Cmpd 265, N-benzyl-1-[(4-methoxyphenyl)carbonyl]-3-(pyridin-2-yl)-1H-1,2,4-triazol-5-amine]"
10,100 to 1000 nM,"COc1ccc(CNc2nc(-c3ccncc3)nn2C(=O)c2ccsc2)cc1 [Cmpd 230, N-[(4-methoxyphenyl)methyl]-3-(pyridin-4-yl)-1-[(thiophen-3-yl)carbonyl]-1H-1,2,4-triazol-5-amine]"
11,100 to 1000 nM,"O=C(c1ccc2ccccc2c1)n1nc(-c2ccccn2)nc1NCc1ccccc1 [Cmpd 271, N-benzyl-1-[(naphthalen-2-yl)carbonyl]-3-(pyridin-2-yl)-1H-1,2,4-triazol-5-amine]"

# Same assay, conditions: inhibition of the protease activity of thrombin; class symbols a/b/c
row,IC50,Compound
1,> 1000 nM,"Cc1ccc(C(=O)n2nc(-c3ccccc3F)cc2NCc2ccccc2)c(N)c1 [Cmpd 106, 1-[(2-amino-4-methylphenyl)carbonyl]-N-benzyl-3-(2-fluorophenyl)-1H-pyrazol-5-amine]"
2,> 1000 nM,"O=C(c1ccccc1Cl)n1nc(-c2ccccc2)cc1NCc1ccc(F)cc1 [Cmpd 114, 1-[(2-chlorophenyl)carbonyl]-N-[(4-fluorophenyl)methyl]-3-phenyl-1H-pyrazol-5-amine]"
3,< 100 nM,"COc1ccc(CNc2nc(-c3ccncc3)nn2C(=O)Cc2ccccc2)cc1 [Cmpd 96, 1-(5-[(4-methoxyphenyl)methyl]amino-3-(pyridin-4-yl)-1H-1,2,4-triazol-1-yl)-2-phenylethan-1-one]"
4,< 100 nM,"COc1ccc(CNc2nc(-c3ccccn3)nn2C(=O)CC(C)C)cc1 [Cmpd 90, 1-(5-[(4-methoxyphenyl)methyl]amino-3-(pyridin-2-yl)-1H-1,2,4-triazol-1-yl)-3-methylbutan-1-one]"
5,< 100 nM,"CCCC(=O)n1nc(-c2ccncc2)nc1NCc1ccc(F)cc1 [Cmpd 80, 1-(5-[(4-fluorophenyl)methyl]amino-3-(pyridin-4-yl)-1H-1,2,4-triazol-1-yl)butan-1-one]"
6,> 1000 nM,"O=C(Nc1ccccc1)c1cn(-c2ccccn2)nc1NCc1ccc(F)cc1 [Cmpd 183, 3-[(4-fluorophenyl)methyl]amino-N-phenyl-1-(pyridin-2-yl)-1H-pyrazole-4-carboxamide]"
7,< 100 nM,COc1ccccc1C(=O)n1nc(-c2ccco2)nc1NCc1ccc(F)cc1 [Cmpd 26]
8,< 100 nM,"COc1ccc(C(=O)n2nc(-c3ccccn3)nc2NCc2ccccc2)c(N)c1 [Cmpd 104, 1-[(2-amino-4-methoxyphenyl)carbonyl]-N-benzyl-3-(pyridin-2-yl)-1H-1,2,4-triazol-5-amine]"
9,> 1000 nM,"O=C(Nc1ccccc1)n1nc(-c2cccnc2)nc1NCc1ccc(F)cc1 [Cmpd 191, 5-[(4-fluorophenyl)methyl]amino-N-phenyl-3-(pyridin-3-yl)-1H-1,2,4-triazole-1-carboxamide]"
10,< 100 nM,"O=C(CCc1ccccc1)n1nc(-c2ccccn2)nc1NCc1ccc(F)cc1 [Cmpd 68, 1-(5-[(4-fluorophenyl)methyl]amino-3-(pyridin-2-yl)-1H-1,2,4-triazol-1-yl)-3-phenylpropan-1-one]"
11,> 1000 nM,"CCC(=O)n1nc(-c2ccccc2)cc1NCc1ccc(F)cc1 [Cmpd 84, 1-(5-[(4-fluorophenyl)methyl]amino-3-phenyl-1H-pyrazol-1-yl)propan-1-one]"
12,> 1000 nM,O=C(Nc1ccccc1F)n1nc(-c2cccnc2)nc1NCc1ccc(F)cc1 [Cmpd 18]
13,< 100 nM,"CC(C)(C)C(=O)n1nc(-c2ccccn2)nc1NCc1ccccc1 [Cmpd 137, 1-[5-(benzylamino)-3-(pyridin-2-yl)-1H-1,2,4-triazol-1-yl]-2,2-dimethylpropan-1-one]"
14,< 100 nM,"CC(C)(C)C(=O)n1nc(-c2cccnc2)nc1NCc1ccc(F)cc1 [Cmpd 71, 1-(5-[(4-fluorophenyl)methyl]amino-3-(pyridin-3-yl)-1H-1,2,4-triazol-1-yl)-2,2-dimethylpropan-1-one]"
15,100 to 1000 nM,"COc1ccc(CNc2nc(-c3cccnc3)nn2C(=O)c2ccoc2)cc1 [Cmpd 126, 1-[(furan-3-yl)carbonyl]-N-[(4-methoxyphenyl)methyl]-3-(pyridin-3-yl)-1H-1,2,4-triazol-5-amine]"
16,100 to 1000 nM,"CC(C)(C)C(=O)n1nc(-c2ccccc2F)cc1NCc1ccccc1 [Cmpd 133, 1-[5-(benzylamino)-3-(2-fluorophenyl)-1H-pyrazol-1-yl]-2,2-dimethylpropan-1-one]"
17,100 to 1000 nM,"CCOC(=O)n1nc(-c2cccnc2)nc1NCc1ccc(F)cc1 [Cmpd 192, ethyl 5-[(4-fluorophenyl)methyl]amino-3-(pyridin-3-yl)-1H-1,2,4-triazole-1-carboxylate]"
18,100 to 1000 nM,"COc1ccc(CNc2nc(-c3ccccn3)nn2C(=O)c2ccoc2)cc1 [Cmpd 125, 1-[(furan-3-yl)carbonyl]-N-[(4-methoxyphenyl)methyl]-3-(pyridin-2-yl)-1H-1,2,4-triazol-5-amine]"
19,> 1000 nM,CON(C)C(=O)c1cc(-c2ccccn2)nn1CCc1ccc(F)cc1 [Cmpd 53]
20,< 100 nM,"CCC(=O)n1nc(-c2ccncc2)nc1NCc1ccccc1 [Cmpd 151, 1-[5-(benzylamino)-3-(pyridin-4-yl)-1H-1,2,4-triazol-1-yl]propan-1-one]"
21,< 100 nM,COc1ccc(CNc2nc(-c3ccncc3)nn2C(=O)C(C)(C)C)cc1 [Cmpd 16]
22,< 100 nM,"O=C(c1ccc(Cl)cc1)n1nc(-c2ccccn2)nc1NCc1ccc(F)cc1 [Cmpd 121, 1-[(4-chlorophenyl)carbonyl]-N-[(4-fluorophenyl)methyl]-3-(pyridin-2-yl)-1H-1,2,4-triazol-5-amine]"
23,> 1000 nM,CCOC(=O)c1cc(-c2ccccn2)nn1CCc1ccc(F)cc1 [Cmpd 51]
24,> 1000 nM,CCC(=O)n1nc(-c2cccnc2)nc1NCc1ccc(C#N)cc1 [Cmpd 10]

# Reference: patent US20170326125A1, “MULTISUBSTITUTED AROMATIC COMPOUNDS AS INHIBITORS OF THROMBIN” (VERSEON CORPORATION, priority 2016, published 2017)
